In patent US8173638B2 (Boehringer Ingelheim International GmbH, priority 2006, dated 2012) one finds EC50 and Emax data, which are given here for 29 compounds.

Like-named read-outs stand apart in the source and are kept apart here.

The assay addresses T1, human CB2R (Homo sapiens, UniProt P34972).
T1 construct: host or cells: CHO cells
The assay can be described thus: CB2R mediated modulation of cAMP synthesis. To be noted: for Emax: 0.5 h, read-out: Agonist Efficacy (%). The format is cell-based. In a few lines: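 Forskolin (10 uM)-driven cAMP in human CB2R-expressing CHO cells, read with DiscoverX-XS kit after 30 min compound exposure at 37 °C, 1 mM IBMX, 0.25% BSA. 100% defined as forskolin cAMP relative to 1 uM CP55940 inhibition. Agonist EC50 via four-parameter logistic model.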

The mark [1] stands for this setting: CHO cells expressing human CB2R, cAMP inhibited by 1 uM CP55940 defined as 100%.

T1 sequence (P34972 whole entry): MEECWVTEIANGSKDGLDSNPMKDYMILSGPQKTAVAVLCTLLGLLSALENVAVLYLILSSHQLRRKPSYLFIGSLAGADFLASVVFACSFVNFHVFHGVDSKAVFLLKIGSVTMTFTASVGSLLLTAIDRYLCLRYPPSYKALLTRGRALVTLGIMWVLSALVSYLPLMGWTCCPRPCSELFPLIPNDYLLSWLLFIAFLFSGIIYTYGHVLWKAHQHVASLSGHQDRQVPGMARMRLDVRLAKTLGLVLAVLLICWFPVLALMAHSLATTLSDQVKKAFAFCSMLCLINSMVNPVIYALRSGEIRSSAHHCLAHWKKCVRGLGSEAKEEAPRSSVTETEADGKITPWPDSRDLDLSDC

Usually EC50 stands for the concentration that produces a half-maximal response. The compound `CC(C)(C)c1cc(NC(=O)N2CCCN(C(=O)C3CCC(F)(F)CC3)CC2)no1` [Compound 144, 4-(4,4-Difluoro-cyclohexanecarbonyl)-[1,4]diazepane-1-carboxylic acid (5-tert-butyl-isoxazol-3-yl)-amide] came in with an EC50 of 1.3 nM. In addition, the Emax (CHO) came out at 98%.

For the compound `CC(C)(C)c1cc(NC(=O)N2CCCN(C(=O)C3CCCCCC3)CC2)no1` [Compound 152, 4-Cycloheptanecarbonyl-[1,4]diazepane-1-carboxylic acid (5-tert-butyl-isoxazol-3-yl)-amide], the Emax under setting [1] stood at 104%. Further, for the setting “read-out: hCB2 cAMP EC50”, the EC50 came out at 19 nM.

With `CC(C)(C)c1cc(NC(=O)N2CCCN(C(=O)C3CCCCC3)CC2)no1` [Compound 153, 4-Cyclohexanecarbonyl-[1,4]diazepane-1-carboxylic acid (5-tert-butyl-isoxazol-3-yl)-amide], the Emax under setting [1] was 104%. The EC50 (read-out: hCB2 cAMP EC50) is 3.7 nM.

The compound `CC(C)(C)c1cc(NC(=O)N2CCCN(C(=O)c3ccc(C(F)(F)F)cc3)CC2)no1` [Compound 154, 4-(4-Trifluoromethyl-benzoyl)-[1,4]diazepane-1-carboxylic acid (5-tert-butyl-isoxazol-3-yl)-amide] registered an EC50 of 1.5 nM. Besides, the Emax (CHO) turned out to be 103%.

Regarding `COC1CCC(C(=O)N2CCCN(C(=O)Nc3cc(C(C)(C)C)on3)CC2)CC1` (stereo not shown) [Compound 155, 4-(4-Methoxy-cyclohexanecarbonyl)-[1,4]diazepane-1-carboxylic acid (5-tert-butyl-isoxazol-3-yl)-amide], the Emax (CHO) was 101%. The EC50 (read-out: hCB2 cAMP EC50) is 110 nM.

Regarding `CC(=O)NC1CCC(C(=O)N2CCCN(C(=O)Nc3cc(C(C)(C)C)on3)CC2)CC1` (stereo not shown) [Compound 160, 4-(4-Acetylamino-cyclohexanecarbonyl)-[1,4]diazepane-1-carboxylic acid (5-tert-butyl-isoxazol-3-yl)-amide], under setting [1], the Emax came out at 107%. The EC50 (read-out: hCB2 cAMP EC50) is 68 nM.

With `O=C(Nc1nc(C2CC2)cs1)N1CCCN(C(=O)c2ccc(Cl)cc2)CC1` [Compound 166, 4-(4-Chloro-benzoyl)-[1,4]diazepane-1-carboxylic acid (4-cyclopropyl-thiazol-2-yl)-amide], the Emax under setting [1] was found to be 91%. Moreover, the EC50 (read-out: hCB2 cAMP EC50) was 90 nM.

For `O=C(Nc1nc(-c2ccccc2)cs1)N1CCCN(C(=O)c2ccc(Cl)cc2)CC1` [Compound 167, 4-(4-Chloro-benzoyl)-[1,4]diazepane-1-carboxylic acid (4-phenyl-thiazol-2-yl)-amide], under setting [1], the Emax was determined as 102%. Moreover, the EC50 (read-out: hCB2 cAMP EC50) turned out to be 26 nM.

Consider `O=C(Nc1nc2c(s1)CCCC2)N1CCCN(C(=O)c2ccc(Cl)cc2)CC1` [Compound 168, 4-(4-Chloro-benzoyl)-[1,4]diazepane-1-carboxylic acid (4,5,6,7-tetrahydro-benzothiazol-2-yl)-amide], for which the Emax under setting [1] turned out to be 101%. Further, the EC50 (read-out: hCB2 cAMP EC50) was found to be 3.6 nM.

Turning to `Cc1nc(NC(=O)N2CCCN(C(=O)C3CCC(F)(F)CC3)CC2)sc1C(C)(C)C` [Compound 169, 4-(4,4-Difluoro-cyclohexanecarbonyl)-[1,4]diazepane-1-carboxylic acid (5-tert-butyl-4-methyl-thiazol-2-yl)-amide], under setting [1], the Emax was 95%. For the same compound, the EC50 (read-out: hCB2 cAMP EC50) worked out at 0.7 nM.

For `CC(C)(C)c1cnc(NC(=O)N2CCCN(C(=O)C3CCC(O)CC3)CC2)s1` (stereo not shown) [Compound 173, 4-(4-Hydroxy-cyclohexanecarbonyl)-[1,4]diazepane-1-carboxylic acid (5-tert-butyl-thiazol-2-yl)-amide], the Emax under setting [1] was 111%. Further, the EC50 (read-out: hCB2 cAMP EC50) was 17 nM.

The compound `O=C(Nc1nc(-c2ccccc2)cs1)N1CCCN(C(=O)C2CCC(O)CC2)CC1` (stereo not shown) [Compound 174, 4-(4-Hydroxy-cyclohexanecarbonyl)-[1,4]diazepane-1-carboxylic acid (4-phenyl-thiazol-2-yl)-amide] showed an EC50 of 43 nM. For the same compound, the Emax (CHO) was 102%.

On to `Cc1nc(NC(=O)N2CCCN(C(=O)C3CCOCC3)CC2)sc1C(C)(C)C` [Compound 183, 4-(Tetrahydro-pyran-4-carbonyl)-[1,4]diazepane-1-carboxylic acid (5-tert-butyl-4-methyl-thiazol-2-yl)-amide], for which the Emax under setting [1] came out at 100%. The EC50 (read-out: hCB2 cAMP EC50) is 18 nM.

For the compound `Cc1sc(NC(=O)N2CCCN(C(=O)C3CCOCC3)CC2)nc1C(C)(C)C` [Compound 186, 4-(Tetrahydro-pyran-4-carbonyl)-[1,4]diazepane-1-carboxylic acid (4-tert-butyl-5-methyl-thiazol-2-yl)-amide], the Emax under setting [1] was 91%. Moreover, where the note is “read-out: hCB2 cAMP EC50”, the EC50 worked out at 58 nM.

Regarding `CCC(C)c1cc(NC(=O)N2CCCN(C(=O)C3CCOCC3)CC2)on1` (stereo not shown) [Compound 193, 4-(Tetrahydro-pyran-4-carbonyl)-[1,4]diazepane-1-carboxylic acid (3-sec-butyl-isoxazol-5-yl)-amide], the response was half-maximal at 41 nM (EC50). For the same compound, the Emax (CHO) came to 106%.

For the compound `CCC(C)c1ccc(NC(=O)N2CCCN(C(=O)C3CCOCC3)CC2)nc1` (stereo not shown) [Compound 196, 4-(Tetrahydro-pyran-4-carbonyl)-[1,4]diazepane-1-carboxylic acid (5-sec-butyl-pyridin-2-yl)-amide], the Emax under setting [1] was found to be 77%. Further, the EC50 (read-out: hCB2 cAMP EC50) was 47 nM.

`CC(C)(C)c1cc(NC(=O)N2CCCN(C(=O)N3CCCCC3)CC2)no1` [Compound 198, 4-(Piperidine-1-carbonyl)-[1,4]diazepane-1-carboxylic acid (5-tert-butyl-isoxazol-3-yl)-amide] showed an EC50 of 47 nM. The Emax (CHO) came to 99%.

Regarding `CC(C)(C)c1cc(NC(=O)N2CCCN(C(=O)N3CCSCC3)CC2)no1` [Compound 203, 4-(Thiomorpholine-4-carbonyl)-[1,4]diazepane-1-carboxylic acid (5-tert-butyl-isoxazol-3-yl)-amide], the Emax under setting [1] is 107%. The EC50 (read-out: hCB2 cAMP EC50) came out at 62 nM.

`CC(C)(C)c1cc(NC(=O)N2CCCN(C(=O)N3CCC(F)(F)CC3)CC2)no1` [Compound 206, 4-(4,4-Difluoro-piperidine-1-carbonyl)-[1,4]diazepane-1-carboxylic acid (5-tert-butyl-isoxazol-3-yl)-amide] registered an EC50 of 16 nM. Besides, under “CHO”, the Emax came out at 105%.

For `CC(C)(C)c1cc(NC(=O)N2CCCN(C(=O)N3CCS(=O)(=O)CC3)CC2)on1` [Compound 211, 4-(1,1-Dioxo-1 λ^6-thiomorpholine-4-carbonyl)-[1,4]diazepane-1-carboxylic acid (3-tert-butyl-isoxazol-5-yl)-amide], the Emax under setting [1] is 100%. The EC50 (read-out: hCB2 cAMP EC50) stood at 95 nM.

`CC(C)(C)c1cc(NC(=O)N2CCCN(C(=O)NC3CCCCC3)CC2)no1` [Compound 212, [1,4]Diazepane-1,4-dicarboxylic acid 1-[(5-tert-butyl-isoxazol-3-yl)-amide] 4-cyclohexylamide] showed an EC50 of 70 nM. In addition, the Emax (CHO) turned out to be 102%.

As to `CC(C)(C)c1cnc(NC(=O)N2CCCN(C(=O)N3CCS(=O)(=O)CC3)CC2)s1` [Compound 214, 4-(1,1-Dioxo-1 λ^6-thiomorpholine-4-carbonyl)-[1,4]diazepane-1-carboxylic acid (5-tert-butyl-thiazol-2-yl)-amide], the Emax under setting [1] came to 95%. Moreover, for the setting “read-out: hCB2 cAMP EC50”, the EC50 came out at 20 nM.

Turning to `CC(C)(C)c1cc(NC(=O)N2CCCN(C(=O)NC3CCCC3)CC2)no1` [Compound 217, [1,4]Diazepane-1,4-dicarboxylic acid 1-[(5-tert-butyl-isoxazol-3-yl)-amide] 4-cyclopentylamide], a half-maximal effect (EC50) was put at 32 nM. The Emax (CHO) is 100%.

With `CCC(C)c1ccc(NC(=O)N2CCCN(C(=O)N3CCOCC3)CC2)cc1` (stereo not shown) [Compound 218, 4-(Morpholine-4-carbonyl)-[1,4]diazepane-1-carboxylic acid (4-sec-butyl-phenyl)-amide], the Emax under setting [1] was 82%. Under “read-out: hCB2 cAMP EC50”, the EC50 is 20 nM.

For the compound `CC(C)(C)c1cc(NC(=O)N2CCCN(C(=O)N3CCOCC3)CC2)on1` [Compound 225, 4-(Morpholine-4-carbonyl)-[1,4]diazepane-1-carboxylic acid (3-tert-butyl-isoxazol-5-yl)-amide], the Emax under setting [1] amounted to 106%. Also, the EC50 (read-out: hCB2 cAMP EC50) was found to be 54 nM.

Regarding `CC(C)(C)c1cc(NC(=O)N2CCCN(C(=O)CN3CCSCC3)CC2)no1` [Compound 227, 4-(2-Thiomorpholin-4-yl-acetyl)-[1,4]diazepane-1-carboxylic acid (5-tert-butyl-isoxazol-3-yl)-amide], the Emax under setting [1] worked out at 102%. Further, the EC50 (read-out: hCB2 cAMP EC50) is 9.6 nM.

For the compound `CC(C)(C)c1cc(NC(=O)N2CCCN(C(=O)CN3CCC(F)(F)CC3)CC2)no1` [Compound 229, 4-[2-(4,4-Difluoro-piperidin-1-yl)-acetyl]-[1,4]diazepane-1-carboxylic acid (5-tert-butyl-isoxazol-3-yl)-amide], the Emax under setting [1] stood at 104%. Besides, the EC50 (read-out: hCB2 cAMP EC50) worked out at 24 nM.

`CC(C)(C)c1cc(NC(=O)N2CCCN(C(=O)C3CCC(=O)CC3)CC2)no1` [Compound 234, 4-(4-Oxo-cyclohexanecarbonyl)-[1,4]diazepane-1-carboxylic acid (5-tert-butyl-isoxazol-3-yl)-amide] registered an EC50 of 33 nM. For the same compound, the Emax (CHO) came out at 100%.

Consider `CCCCc1ccc(NC(=O)N2CCCN(C(=O)CC3CCCC3)CC2)cc1` [Example 11], for which the Emax under setting [1] is 65%. For the same compound, the EC50 (read-out: hCB2 cAMP EC50) was determined as 74 nM.
